Results as given in the NIST ThermoML archive (doi:10.1016/j.jct.2012.09.019).
± gives the expanded uncertainty stated by the source.

Legend:
[1] = Crystal
[2] = refractive index (Na D-line) (dimensionless); conditions: 293.15 K; 101.33 kPa; Liquid; digital refractometer

| Normal melting temperature ([1]; Heating/Cooling curves) [°C] | Normal melting temperature ([1]; heating/cooling curves) [°C] | refractive index [2] | SMILES |
| --- | --- | --- | --- |
| 18.1 ± 2 | 18.0 ± 2 | 1.43461 ± 0.0014 | CCCCCCCCCCCCCCCC [hexadecane] |
| -2.4 ± 2 | – | 1.41692 ± 0.0015 | CCCCCC(=O)O [hexanoic acid] |
| -5.2 ± 2 | – | 1.39808 ± 0.0014 | CCCC(=O)O [butanoic acid] |
| 6.7 ± 2 | – | 1.42631 ± 0.0014 | C1CCCCC1 [cyclohexane] |
| -7.5 ± 2 | – | 1.4229 ± 0.0014 | CCCCCCC(=O)O [heptanoic acid] |
| -20.8 ± 2 | – | 1.38682 ± 0.0014 | CCC(=O)O [propanoic acid] |
| -34.4 ± 2 | – | 1.40857 ± 0.0015 | CCCCC(=O)O [pentanoic acid] |
